Experimental data: PubChem BioAssay AID624365 (Broad Institute, 2012)
Several values for one entry are separate records, joined by “and”; a condition that tells them apart may be missing. Equal entries are not always repeated. Records with an inconclusive call do not appear. Activity calls are given as the source filed them.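 The calls were made as follows: active = fitted curve drops past -35% activity change at a concentration up to twice the top valid dose tested; inconclusive = no clear call, values can overlap the other calls; inactive = activity opposite to the expected decrease, or the rest.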

System: not listed separately
Assay: HepG2 cell viability loss, dose response, cytotoxicity control for LMP1 inhibitor project, CellTiter-Glo luminescence, dry powder (AID 624365)
Settings: HepG2 viability, CellTiter-Glo luminescence, 48 h; at 10 µM (top of the series)

Row | Compound | activity change, negative = cytotoxicity
1 | C/C(=N\NC(=S)Nc1ccccc1)c1ccccn1 | -2.52% (inactive)
2 | C/C(=N\NC(=S)N1CCN(c2ccccn2)CC1)c1ccccn1 | -18.8% (inactive)

Same assay, conditions: HepG2 viability, CellTiter-Glo luminescence, 48 h; at 12 µM (top of the series)

Row | Compound | activity change, negative = cytotoxicity
3 | C=C1C[C@]23C[C@@]1(O)CC[C@H]2[C@@]12C=C[C@H](O)[C@@](C)(C(=O)O1)[C@H]2[C@@H]3C(=O)O | 9.94% (inactive)

Same assay, conditions: HepG2 viability, CellTiter-Glo luminescence, 48 h; at 19.5 µM (top of the series)

Row | Compound | activity change, negative = cytotoxicity
4 | Cc1ccc(NC(=O)C2CCN(S(=O)(=O)c3ccc4c(c3)NC(=O)C(C)S4)CC2)cc1Cl (centres undefined) | -15.1% (inactive)
5 | CSC(=S)N/N=C(\C)c1cccc(C)n1 | 1.36% (inactive)
6 | COCCCNC(=O)C(C)Sc1nnc2c3cc(C)ccc3n(Cc3ccccc3F)c2n1 (centres undefined) | -14.5% (inactive)
7 | Cc1cc(NC(=O)c2ccc3c(c2)OCCO3)no1 | 14.9% (inactive)
8 | C[C@@H]1CCCCO[C@H](CN(C)C(=O)CCC(F)(F)F)[C@H](C)CN([C@@H](C)CO)C(=O)c2cc(NC(=O)CCC(F)(F)F)ccc2O1 | 6.76% (inactive)
9 | CCc1ccc(/C=C2\SC(=S)N(CCCC(=O)Nc3ccccn3)C2=O)cc1 | -1.2% (inactive)
10 | Oc1cccc(C(Nc2nccs2)c2ccc3cccnc3c2O)c1 (centres undefined) | 3.87% (inactive)
11 | C=CCN1Cc2ccccc2[C@@H]2OC(c3ccc(OCCCO)cc3)=N[C@]2(CCC(=O)OC(C)(C)C)C1=O | 4.76% (inactive)
12 | O=C1/C(=C/c2ccncc2)SC(=S)N1Cc1ccccc1 | -5.23% (inactive)
13 | C[C@@H]1CCCCO[C@H](CN(C)S(=O)(=O)c2ccccc2)[C@@H](C)CN([C@@H](C)CO)C(=O)c2cc(N(C)C)ccc2O1 | -0.756% (inactive)
14 | Cc1ccnc(NC(=O)c2ccc(C(=O)c3ccccc3)cc2)c1 | -6.85% (inactive)
15 | CCN1CCN(C(c2cccnc2)c2cc(Cl)c3cccnc3c2O)CC1 (centres undefined) | -19.9% (inactive)
16 | O=c1[nH]c(Nc2nc3ccccc3o2)nc2c1CCCC2 | -6.44% (inactive)
17 | C/C(=N\NC(=S)N1CC2CCC(CC2)C1)c1cccc(C)n1 | -9.43% (inactive)
18 | CCCSc1nnc2c3ccccc3n(Cc3ccccc3)c2n1 | -1.67% (inactive)
19 | Cc1c(NC(=O)c2cccc(NC(=O)COc3ccccc3C#N)c2)c(=O)n(-c2ccccc2)n1C | 0.795% (inactive)
20 | C=C1C[C@]23C[C@@]1(O)CC[C@@H]2c1cccc(C)c1[C@@H]3C(=O)O | -23.5% (inactive)
21 | C[C@H](CO)N1C[C@H](C)[C@@H](CN(C)CC2CCCCC2)OCCCC[C@H](C)Oc2ccc(NC(=O)Nc3cccc4ccccc34)cc2C1=O | -6.9% (inactive)
22 | C[C@@H]1CN([C@@H](C)CO)C(=O)c2cc(NC(=O)Nc3ccc(C(F)(F)F)cc3)ccc2O[C@@H](C)CCCCO[C@H]1CN(C)Cc1ccc(C(F)(F)F)cc1 | -1.82% (inactive)

Row | Compound | activity change, negative = cytotoxicity
23 | C[C@@H]1CN([C@@H](C)CO)C(=O)c2cccc(NC(=O)Nc3cccc4ccccc34)c2O[C@H]1CN(C)C(=O)Nc1ccc(C(F)(F)F)cc1 | -1.58% (inactive)
24 | c1ccc(-c2cn3c4c(sc3n2)CCCC4)cc1 | -13.4% (inactive)
25 | CCc1ccc(/C=C/C(=O)C2C(=O)c3ccccc3C2=O)cc1 | -7.16% (inactive)
26 | C[C@@H]1CCCCO[C@@H](CN(C)Cc2ccccc2)[C@H](C)CN([C@H](C)CO)C(=O)c2cc(NC(=O)Nc3ccc4c(c3)OCO4)ccc2O1 | -6.99% (inactive)
27 | COc1ccc(C(=O)Nc2ccc3[nH]ccc3c2)cc1 | 1.7% (inactive)
28 | O=C(CCc1ccccc1)NC(c1cccs1)c1cc(Cl)c2cccnc2c1O (centres undefined) | 1.94% (inactive)
29 | CCc1sc(C(=O)Nc2ncccc2O)cc1C | -0.832% (inactive)
30 | C[C@@H]1CCCCO[C@H](CN(C)CC2CCCCC2)[C@H](C)CN([C@@H](C)CO)C(=O)c2cc(NC(=O)NC3CCCCC3)ccc2O1 | -0.214% (inactive)
31 | CC1=C(C(=O)OCc2ccc3c(c2)OCO3)C(c2ccc(F)cc2)NC(=O)N1 (centres undefined) | 2.83% (inactive)
32 | CC1CN(C(=O)CSc2nnc3c4ccccc4n(Cc4cccc(Cl)c4)c3n2)CCN1C(=O)c1ccccc1F (centres undefined) | -2.74% (inactive)
33 | O=C(Nc1cc(C(F)(F)F)cc(C(F)(F)F)c1)Nc1cnn(-c2ccc([N+](=O)[O-])cc2)c1C(F)(F)F | 11.8% (inactive)
34 | COc1ccc(-c2csc3ncnc(NCCN4CCOCC4)c23)cc1 | -1.72% (inactive)
35 | Cc1ccc(S(=O)(=O)Nc2ccc3c(c2)C(=O)N([C@@H](C)CO)C[C@H](C)[C@@H](CN(C)C(=O)CCC(F)(F)F)OCCCC[C@H](C)O3)cc1 | 1.23% (inactive)
36 | COc1ccc(-c2cc3nc4n(c(=O)c3s2)CCC4)cc1 | -14.3% (inactive)
37 | C[C@@H]1CCCCO[C@H](CN(C)C(=O)NC2CCCCC2)[C@H](C)CN([C@@H](C)CO)C(=O)c2cc(NC(=O)C3CCCCC3)ccc2O1 | 11% (inactive)
38 | C[C@@H]1CCCCO[C@H](CN(C)C(=O)c2ccccc2)[C@H](C)CN([C@@H](C)CO)C(=O)c2cc(NC(=O)Nc3ccc(F)cc3)ccc2O1 | -6.27% (inactive)
39 | CC12CCC3C(CC=C4CC(O)CCC43CO)C1CCC2OC(=O)c1ccccc1 (centres undefined) | 0.538% (inactive)
40 | Cc1ccc(S(=O)(=O)NC(CC(C)C)C(=O)NCC(c2ccco2)N2CCCCC2)cc1 (centres undefined) | 14.4% (inactive)

Same assay, conditions: HepG2 viability, CellTiter-Glo luminescence, 48 h; at 21 µM (top of the series)

Row | Compound | activity change, negative = cytotoxicity
41 | CNC[C@@H]1Oc2ccc(NS(=O)(=O)c3cn(C)cn3)cc2CC(=O)N([C@H](C)CO)C[C@@H]1C | -1.51% (inactive)
42 | COc1ccc(NC(=O)c2ccc(OC(C)C(=O)O)cc2)cc1Cl (centres undefined) | -17.9% (inactive)

System: HepG2 viability, CellTiter-Glo luminescence, 48 h
Assay: as above
Settings: not given

Row | Compound | AC35
43 | Nc1ccn([C@@H]2O[C@H](CO)[C@@H](O)C2O)c(=O)n1 (some centres undefined) | 7.36 µM
44 | Fc1ccc2c(c1)c1nnc(SCCN3CCOCC3)nc1n2Cc1ccccc1 | 33.7 µM
45 | COc1ccc2[nH]c(C(=O)N/N=C/c3ccc(O)cc3O)cc2c1 | 46.4 µM
46 | CC(=O)Nc1nc(C)c(-c2csc(Nc3ccc(O)cc3)n2)s1 | 19.6 µM
47 | C/C(=N\NC(=S)N1CCCCC1)c1cccc(C)n1 | 2.55 µM
48 | COc1ccc2nc(Nc3nc(C)c(CCC(C)C)c(=O)[nH]3)nc(C)c2c1 | 3.44 µM
49 | C[C@@H]1CN([C@@H](C)CO)C(=O)c2cc(NC(=O)Nc3ccc4c(c3)OCO4)ccc2O[C@H]1CN(C)CC1CCCCC1 | 28.9 µM
50 | C/C(=N\NC(=S)Nc1ccccc1Cl)c1ccccn1 | 9.26 µM
51 | CCn1c2ccccc2c2cc(/C=N/n3cnnc3)ccc21 | 22.1 µM
52 | CC(C)=CCN(C(=O)C#Cc1ccccc1)[C@H](CO)c1ccccc1 | 20.3 µM
53 | C[C@H](CO)N1C[C@H](C)[C@@H](CN(C)CC2CC2)OCCCC[C@H](C)Oc2ccc(NC(=O)Nc3cccc4ccccc34)cc2C1=O | 79.9 µM
54 | O=C(CSc1nnc2c3ccccc3n(Cc3ccccc3)c2n1)NCc1ccco1 | 19.5 µM
55 | C[C@H](CO)N1C[C@H](C)[C@@H](CN(C)Cc2ccc(-c3ccccc3)cc2)Oc2ccc(NC(=O)Nc3cccc4ccccc34)cc2CC1=O | 37 µM
56 | O=c1[nH]c(=O)n([C@H]2C[C@H](O)[C@@H](CO)O2)cc1C(F)(F)F | 14.3 µM
57 | C[C@H](CO)N1C[C@H](C)[C@H](CN(C)C(=O)Nc2ccc(C(F)(F)F)cc2)OCCCC[C@H](C)Oc2ccc(NC(=O)Nc3ccc(F)cc3)cc2C1=O | 55.6 µM
58 | C/C(=N\NC(=S)Nc1ccc(C)cc1)c1ccccn1 | 11.9 µM
59 | C/C(=N\NC(=S)Nc1cccc(Cl)c1)c1ccccn1 | 13.2 µM
60 | C[C@H]1CCCCO[C@@H](CN(C)CC2CCCCC2)[C@@H](C)CN([C@@H](C)CO)C(=O)c2cc(NC(=O)C3CCCCC3)ccc2O1 | 21.4 µM
61 | C[C@@H]1CN([C@@H](C)CO)C(=O)c2cc(NC(=O)Nc3ccc(C(F)(F)F)cc3)ccc2O[C@@H](C)CCCCO[C@@H]1CN(C)CC1CCCCC1 | 40.7 µM
62 | CSc1nc(-c2ccc(C)cc2)nc(C(Cl)Cl)n1 | 36 µM
63 | C/C=C/C/C=C/CCC(=O)[C@H]1O[C@H]1C(N)=O | 14 µM and 60.1 µM
64 | COc1cccc(/C=N/Nc2ncnc3c2ncn3Cc2ccccc2)c1O | 26.4 µM
